Among the test systems are PC-3; OVCAR-8; NCI-H522; SK-MEL-28; RPMI-8226; HL-60; T47D; SK-MEL-5; IGROV-1; UO-31; NCI-H23; K562; HOP-92; NCI-H460; NCI/ADR-RES; SR; HCC 2998; HCT-15; A498; HOP-18.
Assay in all cases: NCI anticancer screen, dose series, 48 h

Results on twelve molecules are retold here after ChEMBL document CHEMBL1201862, “PubChem BioAssay data set” (2004).

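How tested: cells in 96-well plates exposed to compound for 48 hours at five concentrations. The concentration for 50% growth inhibition is given as GI50.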 Active and inactive are the calls of the source. No stated cut-off is given here; in the data, active = GI50 up to about 1.1 µM and inactive = higher.

For `O=C1c2c(F)c(F)c(F)c(F)c2SC2=NCCN12`, the GI50 is 13.6 µM (inactive) with PC-3; 11.5 µM (inactive) in the assay on OVCAR-8; 2.82 µM (inactive) in the assay on NCI-H522; 9.38 µM (inactive) in the assay on SK-MEL-28; 4 µM (inactive) in the assay with RPMI-8226; 2.19 µM (inactive) in the assay with HL-60. For the same molecule, the GI50 is 12.5 µM (inactive) with T47D; 14.8 µM (inactive) in the assay with SK-MEL-5; 7.19 µM (inactive) in the assay on IGROV-1; 10.1 µM (inactive) with UO-31; 5.42 µM (inactive) with NCI-H23; 2.1 µM (inactive) in the assay with K562. Also, the GI50 in the assay on HOP-92 is 3.78 µM (inactive); with NCI-H460, 6.53 µM (inactive); in the assay on NCI/ADR-RES, 10.4 µM (inactive); with SR, 1.15 µM (inactive); with HCC 2998 it was 14.5 µM (inactive); in the assay with HCT-15, 2.81 µM. Further, the GI50 with A498 was 18.4 µM (inactive).

As for `CC1C(OS(=O)(=O)c2ccc3nc(S)sc3c2)CC2C3(C)CCC2(C(C)C(=O)O)C(O)C13` (centres undefined), the GI50 is 27.4 µM (inactive) in the assay on PC-3; 20.1 µM (inactive) in the assay on OVCAR-8; 3.29 µM (inactive) in the assay with NCI-H522; 26.8 µM (inactive) in the assay on SK-MEL-28; 11.5 µM (inactive) with RPMI-8226; 23.7 µM (inactive) with HL-60. Further, the GI50 with T47D was 21.2 µM (inactive); in the assay with SK-MEL-5 it was 14.8 µM (inactive); with IGROV-1 it was 11.4 µM (inactive); in the assay with UO-31 it was 17.4 µM (inactive); in the assay with NCI-H23 it was 17.9 µM (inactive); with K562, 26.2 µM (inactive). For the same molecule, the GI50 was 26.6 µM (inactive) in the assay with HOP-92; 46.9 µM (inactive) in the assay with NCI-H460; 33 µM (inactive) in the assay on NCI/ADR-RES; 11.9 µM (inactive) in the assay with SR; 35.6 µM (inactive) with HCC 2998; 12.5 µM with HCT-15. The GI50 with A498 is 54.7 µM (inactive).

On to `O=C(/C=C/c1ccccc1)CC1OC(=O)c2ccccc21` (centres undefined), for which the GI50 with OVCAR-8 is > 100 µM (inactive); with NCI-H522, 31.3 µM (inactive); in the assay on SK-MEL-28, > 100 µM (inactive); in the assay on RPMI-8226, 24.2 µM (inactive); in the assay on HL-60, 28.1 µM (inactive); in the assay with SK-MEL-5, > 100 µM (inactive). Moreover, the GI50 is 80.7 µM (inactive) in the assay on IGROV-1; > 100 µM (inactive) with UO-31; 14.9 µM (inactive) in the assay on HOP-18; 47.1 µM (inactive) in the assay with NCI-H23; 75.5 µM (inactive) with K562; 48.8 µM (inactive) in the assay on HOP-92. The GI50 in the assay on NCI-H460 is > 100 µM (inactive); in the assay with HCC 2998 it was > 100 µM (inactive); in the assay with HCT-15, greater than 100 µM; with A498, > 100 µM (inactive).

`CC(C)(C)C(=O)C1CC(=O)c2ccccc2C1=O` (centres undefined): the GI50 is 37 µM (inactive) with OVCAR-8; 23.6 µM (inactive) with NCI-H522; 20.5 µM (inactive) in the assay on SK-MEL-28; 23 µM (inactive) in the assay with RPMI-8226; 20.7 µM (inactive) in the assay with HL-60; 32.4 µM (inactive) with SK-MEL-5. For the same molecule, the GI50 in the assay on IGROV-1 is 33.7 µM (inactive); with UO-31 it was 21.7 µM (inactive); in the assay on HOP-18, 37.5 µM (inactive); in the assay with NCI-H23 it was 20.7 µM (inactive); with K562, 40.6 µM (inactive); in the assay with HOP-92, 24.8 µM (inactive). Further, the GI50 with NCI-H460 was 29.7 µM (inactive); in the assay on HCC 2998, 23.4 µM (inactive); in the assay with A498 it was 42.3 µM (inactive).

Take `N#CC(C#N)c1ccc(C(=O)N2CCC[C@H]2CO)cc1`: the GI50 was > 100 µM (inactive) in the assay on OVCAR-8; > 100 µM (inactive) with NCI-H522; > 100 µM (inactive) in the assay on SK-MEL-28; > 100 µM (inactive) with RPMI-8226; > 100 µM (inactive) with HL-60; 0.471 µM (active) in the assay on SK-MEL-5. Also, the GI50 in the assay on IGROV-1 was > 100 µM (inactive); in the assay on UO-31 it was > 100 µM (inactive); in the assay on HOP-18, > 100 µM (inactive); in the assay on NCI-H23, > 100 µM (inactive); in the assay on K562 it was > 100 µM (inactive); in the assay with HOP-92, 58.2 µM (inactive). The results for the GI50 in the assay on NCI-H460, with HCC 2998 and in the assay with HCT-15 were > 100 µM (inactive), > 100 µM (inactive) and greater than 100 µM, respectively.

Take `COc1cc2ccc3c4ccccc4cnc3c2cc1OC`: the GI50 in the assay on OVCAR-8, in the assay on NCI-H522, in the assay with SK-MEL-28, with RPMI-8226, in the assay on HL-60 and in the assay on SK-MEL-5 was > 100 µM (inactive) in each case. For the same molecule, the GI50 in the assay on IGROV-1, in the assay on UO-31, in the assay on HOP-18, with NCI-H23, with K562 and with HOP-92 was > 100 µM (inactive) each time. Moreover, the GI50 in the assay with NCI-H460 was > 100 µM (inactive); with SR it was > 100 µM (inactive); in the assay with HCC 2998, > 100 µM (inactive); with HCT-15 it was greater than 100 µM.

With `Cc1cc(C)nc(NS(=O)(=O)c2ccc(Nc3c4ccccc4nc4c(C(=O)Nc5ccc(S(=O)(=O)N=C(N)N)cc5)cccc34)cc2)n1`, the GI50 with OVCAR-8 is > 100 µM (inactive); in the assay with NCI-H522, > 100 µM (inactive); in the assay on SK-MEL-28, 67.3 µM (inactive); with RPMI-8226 it was > 100 µM (inactive); in the assay on SK-MEL-5 it was > 100 µM (inactive); in the assay with IGROV-1 it was > 100 µM (inactive). Also, the GI50 in the assay on UO-31 is 85.3 µM (inactive); in the assay on HOP-18 it was > 100 µM (inactive); in the assay on NCI-H23, > 100 µM (inactive); in the assay with K562, > 100 µM (inactive); in the assay on HOP-92 it was 37.5 µM (inactive); with NCI-H460 it was > 100 µM (inactive). In addition, the GI50 in the assay on HCC 2998 was > 100 µM (inactive); with HCT-15, greater than 100 µM; in the assay with A498, > 100 µM (inactive).

As to `COc1cc(-c2c(C)c(C)nc(OC)c2C#N)cc(OC)c1OC`, the GI50 in the assay with OVCAR-8 is > 100 µM (inactive); with SK-MEL-28 it was > 100 µM (inactive); in the assay with RPMI-8226, 37.4 µM (inactive); with HL-60 it was 24.4 µM (inactive); in the assay on SK-MEL-5, > 100 µM (inactive); in the assay on IGROV-1, > 100 µM (inactive). In addition, the GI50 with UO-31 is 31.5 µM (inactive); with HOP-18, 46.1 µM (inactive); in the assay with NCI-H23, > 100 µM (inactive); in the assay with K562, 58.7 µM (inactive); with HOP-92 it was 21.3 µM (inactive); in the assay with NCI-H460, > 100 µM (inactive). The GI50 was > 100 µM (inactive) with HCC 2998, greater than 100 µM in the assay on HCT-15 and > 100 µM (inactive) in the assay on A498.

On to `CC1(C)COC(c2cccnc2/C=N/O)=N1`, for which the GI50 with OVCAR-8, in the assay with NCI-H522, in the assay on SK-MEL-28, with HL-60, in the assay on SK-MEL-5 and in the assay on IGROV-1 was > 100 µM (inactive) throughout. Besides, the GI50 in the assay with UO-31, with HOP-18, in the assay with NCI-H23, in the assay with K562, in the assay with HOP-92 and in the assay with NCI-H460 was > 100 µM (inactive) each time. For the same molecule, the GI50 is > 100 µM (inactive) in the assay on SR, greater than 100 µM in the assay with HCT-15 and > 100 µM (inactive) with A498.

`Cc1cc(N(CCC#N)CCC#N)ccc1/C=C1N=C(/C=C\c2ccccc2)N(NC(=O)CC(=O)Nc2ccccc2Cl)C\1=O`: the GI50 in the assay with OVCAR-8, in the assay with NCI-H522, in the assay with SK-MEL-28, with RPMI-8226, with HL-60 and with SK-MEL-5 was > 100 µM (inactive) in each case. For the same molecule, the GI50 in the assay on IGROV-1, in the assay with UO-31, with HOP-18, with NCI-H23, in the assay with K562 and with HOP-92 was > 100 µM (inactive) in each case. Besides, the GI50 is > 100 µM (inactive) with NCI-H460, greater than 100 µM with HCT-15 and > 100 µM (inactive) in the assay with A498.

Turning to `CCCC1N2CCCCC2[C@@H]2c3[nH]c4ccccc4c3CCN12` (some centres undefined), the GI50 with OVCAR-8, with SK-MEL-28, with RPMI-8226, with HL-60, in the assay on SK-MEL-5 and in the assay with IGROV-1 was > 100 µM (inactive) each time. Further, the GI50 in the assay with UO-31, in the assay on HOP-18, in the assay on NCI-H23, in the assay with K562, in the assay on HOP-92 and with NCI-H460 was > 100 µM (inactive) in each case. The GI50 with HCC 2998 was > 100 µM (inactive); in the assay on HCT-15, greater than 100 µM; in the assay with A498, > 100 µM (inactive).

For the molecule `Nc1nc(N)c(N=O)c(OCC2CCCCC2)n1`, the GI50 with PC-3 is 6.41 µM (inactive); with OVCAR-8 it was 15 µM (inactive); in the assay on NCI-H522, 5.96 µM (inactive); in the assay with SK-MEL-28, 15.7 µM (inactive); with RPMI-8226, 6.52 µM (inactive); with HL-60, 14.7 µM (inactive). Besides, the GI50 in the assay with T47D is 5.57 µM (inactive); in the assay on SK-MEL-5, 9.73 µM (inactive); in the assay with IGROV-1, 3.23 µM (inactive); in the assay on UO-31 it was 5.16 µM (inactive); with NCI-H23, 12.2 µM (inactive); in the assay on K562, 21.9 µM (inactive). The GI50 with HOP-92 was 7.83 µM (inactive); in the assay on NCI-H460, 6.17 µM (inactive); in the assay with NCI/ADR-RES, 18.9 µM (inactive); in the assay with SR, 4.76 µM (inactive); in the assay on HCC 2998, 14.9 µM (inactive); in the assay with HCT-15 it was 5.5 µM. Also, the GI50 in the assay with A498 was 18.1 µM (inactive).
